In patent US12527808B2, “Compounds useful to treat pain” (Amneal Pharmaceuticals LLC, priority 2019, dated 2026):

Tests used:
Bradykinin B2 Receptor = biological target: T1, Bradykinin B2 Receptor (Homo sapiens, UniProt P30411); test: Radioligand binding assay for bradykinin B2 receptor
T1 construct: purchased; host or cells: transiently transfected CHO-K1 cells (membranes)
T1 sequence (P30411 1-391): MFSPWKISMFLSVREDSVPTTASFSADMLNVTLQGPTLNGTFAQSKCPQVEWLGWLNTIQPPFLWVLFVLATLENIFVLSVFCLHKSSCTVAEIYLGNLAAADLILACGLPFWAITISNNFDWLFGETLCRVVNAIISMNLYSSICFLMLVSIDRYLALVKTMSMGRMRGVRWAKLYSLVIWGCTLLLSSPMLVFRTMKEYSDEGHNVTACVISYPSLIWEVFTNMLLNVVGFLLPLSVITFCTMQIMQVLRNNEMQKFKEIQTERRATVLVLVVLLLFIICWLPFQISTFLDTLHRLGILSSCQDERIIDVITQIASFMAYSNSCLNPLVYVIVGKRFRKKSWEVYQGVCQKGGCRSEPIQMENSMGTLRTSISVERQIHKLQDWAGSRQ
Experimental: (§1) Example 10: Radioligand Binding Assay for Bradykinin B1 and B2 Receptor
(§2) Bradykinin receptor membrane (B1 & B2) was procured from commercial source. Competitive radioligand binding assay was done by filtration-based technique using membranes prepared from transiently transfected Chinese hamster ovary (CHO)—K1 cells. Briefly, different concentrations of Phenazopyridine (compound I-A) was added to 96 wells plate containing bradykinin membrane along with required controls. The assay plate was harvested onto a GF/B Unifier harvester plate and washed with cold wash buffer. Plate was dried in oven for 15 mins at 60° C. The membrane activity was analyzed based on the readout using MicroBeta from Perkin Elmer in Counts Per Minute (CPM). Percent inhibition of Bradykinin receptor activity was calculated at each concentration and summarized in the results.

Bradykinin B1 Receptor = biological target: T2, Bradykinin B1 Receptor (Homo sapiens, UniProt P46663); test: Radioligand binding assay for bradykinin B1 receptor
T2 construct: purchased; host or cells: transiently transfected CHO-K1 cells (membranes)
T2 sequence (P46663 1-353): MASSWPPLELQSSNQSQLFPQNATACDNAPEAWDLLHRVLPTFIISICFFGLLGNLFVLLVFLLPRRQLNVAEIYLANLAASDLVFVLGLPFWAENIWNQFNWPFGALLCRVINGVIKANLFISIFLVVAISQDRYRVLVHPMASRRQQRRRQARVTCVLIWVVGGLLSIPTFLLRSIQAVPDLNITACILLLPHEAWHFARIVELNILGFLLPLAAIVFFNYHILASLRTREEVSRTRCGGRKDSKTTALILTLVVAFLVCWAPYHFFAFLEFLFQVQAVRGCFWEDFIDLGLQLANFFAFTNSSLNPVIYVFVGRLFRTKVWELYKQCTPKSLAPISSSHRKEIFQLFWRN
Experimental: as §1, §2

inhibition at 0.03 µM (Bradykinin B2 Receptor; 0.03 μM): 6% | inhibition at 0.1 µM (Bradykinin B2 Receptor; 0.10 μM): 13% | inhibition at 0.32 µM (Bradykinin B2 Receptor; 0.32 μM): 10% | inhibition at 1 µM (Bradykinin B2 Receptor; 1.00 μM): 37% | inhibition at 3.17 µM (Bradykinin B2 Receptor; 3.17 μM): 38% | inhibition at 10.01 µM (Bradykinin B2 Receptor; 10.01 μM): 59% | inhibition at 31.65 µM (Bradykinin B2 Receptor; 31.65 μM): 78% | inhibition at 100 µM (Bradykinin B2 Receptor; 100.00 μM): 98% | inhibition at 1 µM (Bradykinin B1 Receptor; 1.00 μM): 12% | inhibition at 10.01 µM (Bradykinin B1 Receptor; 10.01 μM): 49% | inhibition at 100 µM (Bradykinin B1 Receptor; 100.00 μM): 81%
SMILES: Nc1ccc(/N=N/c2ccccc2)c(N)n1 [Phenazopyridine]
